Experimental data published in patent US20220340597A1, “HEXAHYDRO-1H-PYRAZINO[1,2-A]PYRAZINE COMPOUNDS FOR THE TREATMENT OF AUTOIMMUNE DISEASE” (Hoffmann-La Roche Inc., priority 2019, published 2022).

Tests used:
human TLR9 = biological target: T1, human TLR9 (Homo sapiens, UniProt Q9NR96); assay: HEK293-Blue-hTLR-9 cells assay; format: cell-based; conditions: HEK293-Blue-hTLR9 cells, ODN2006 stimulation, 20 hrs, SEAP reporter; read-out: HEK/hTLR9 IC50
T1 construct: host or cells: HEK293 (HEK-Blue hTLR9)
T1 sequence (Q9NR96 26-1032): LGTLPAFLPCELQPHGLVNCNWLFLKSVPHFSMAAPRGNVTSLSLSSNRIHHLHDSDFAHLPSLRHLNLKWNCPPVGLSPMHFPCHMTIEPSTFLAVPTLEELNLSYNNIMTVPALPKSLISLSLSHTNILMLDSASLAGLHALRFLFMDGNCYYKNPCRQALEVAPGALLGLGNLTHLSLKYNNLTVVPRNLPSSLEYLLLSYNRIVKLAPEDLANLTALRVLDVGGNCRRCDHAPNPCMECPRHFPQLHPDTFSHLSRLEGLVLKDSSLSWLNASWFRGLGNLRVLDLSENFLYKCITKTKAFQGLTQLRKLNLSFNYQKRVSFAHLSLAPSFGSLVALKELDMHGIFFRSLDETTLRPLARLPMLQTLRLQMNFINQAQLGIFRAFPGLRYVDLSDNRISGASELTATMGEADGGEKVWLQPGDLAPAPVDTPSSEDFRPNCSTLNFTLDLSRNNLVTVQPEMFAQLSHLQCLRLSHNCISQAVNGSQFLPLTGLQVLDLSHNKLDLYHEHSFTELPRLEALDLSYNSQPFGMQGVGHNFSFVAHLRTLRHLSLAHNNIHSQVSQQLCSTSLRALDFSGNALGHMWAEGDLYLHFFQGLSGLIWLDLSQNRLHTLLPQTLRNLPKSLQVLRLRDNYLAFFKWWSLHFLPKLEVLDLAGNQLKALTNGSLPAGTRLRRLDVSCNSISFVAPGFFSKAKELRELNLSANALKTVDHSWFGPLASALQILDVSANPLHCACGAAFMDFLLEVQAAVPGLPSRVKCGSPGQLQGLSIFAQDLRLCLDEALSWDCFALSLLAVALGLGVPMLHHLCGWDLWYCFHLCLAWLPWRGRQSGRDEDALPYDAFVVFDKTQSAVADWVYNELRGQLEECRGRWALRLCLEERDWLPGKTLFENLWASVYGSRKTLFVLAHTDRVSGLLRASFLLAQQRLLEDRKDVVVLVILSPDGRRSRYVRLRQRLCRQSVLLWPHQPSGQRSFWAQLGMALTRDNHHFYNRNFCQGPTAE

hERG channel = biological target: T2, hERG channel (Homo sapiens, UniProt Q12809); assay: hERG channel inhibition assay (patch-clamp, CHOhERG cells); format: cell-based; conditions: for IC50 / IC20: CHOhERG cells, whole-cell patch-clamp; for IC20: human, CHO cells stably expressing hERG (CHOhERG); for hERG IC20/TLR7 IC50 / hERG IC20/TLR8 IC50 / hERG IC20/TLR9 IC50: safety ratio
T2 construct: expressed in transfected cells; host or cells: CHO (Chinese hamster ovary), CHOhERG
Procedure: hERG Channel Inhibition Assay:
The hERG K^+ channels were cloned in humans and stably expressed in a CHO (Chinese hamster ovary) cell line. CHOhERG cells were used for patch-clamp (voltage-clamp, whole-cell) experiments. Cells were stimulated by a voltage pattern to activate hERG channels and conduct IKhERG currents (rapid delayed outward rectifier potassium current of the hERG channel). After the cells were stabilized for a few minutes, the amplitude and kinetics of IKhERG were recorded at a stimulation frequency of 0.1 Hz (6 bpm). Thereafter, the test compound was added to the preparation at increasing concentrations. For each concentration, an attempt was made to reach a steady-state effect, usually, this was achieved within 3-10 min at which time the next highest concentration was applied. The amplitude and kinetics of IKhERG are recorded in each concentration of the drug which were compared to the control values (taken as 100%). (references: Redfern W S, Carlsson L, Davis A S, Lynch W G, MacKenzie I, Palethorpe S, Siegl P K, Strang I, Sullivan A T, Wallis R, Camm A J, Hammond T G. 2003; Relationships between preclinical cardiac electrophysiology, clinical QT interval prolongation and torsade de pointes for a broad range of drugs: evidence for a provisional safety margin in drug development. Cardiovasc. Res. 58:32-45, Sanguinetti M C, Tristani-Firouzi M. 2006; hERG potassium channels and cardiac arrhythmia. Nature 440:463-469, Webster R, Leishman D, Walker D. 2002; Towards a drug concentration effect relationship for QT prolongation and torsades de pointes. Curr. Opin. Drug Discov. Devel. 5:116-26).
The calculation of hERG IC20/TLR7/8/9 IC50 below serves as early selectivity index to assess hERG liability.

T2 sequence (Q12809 whole entry): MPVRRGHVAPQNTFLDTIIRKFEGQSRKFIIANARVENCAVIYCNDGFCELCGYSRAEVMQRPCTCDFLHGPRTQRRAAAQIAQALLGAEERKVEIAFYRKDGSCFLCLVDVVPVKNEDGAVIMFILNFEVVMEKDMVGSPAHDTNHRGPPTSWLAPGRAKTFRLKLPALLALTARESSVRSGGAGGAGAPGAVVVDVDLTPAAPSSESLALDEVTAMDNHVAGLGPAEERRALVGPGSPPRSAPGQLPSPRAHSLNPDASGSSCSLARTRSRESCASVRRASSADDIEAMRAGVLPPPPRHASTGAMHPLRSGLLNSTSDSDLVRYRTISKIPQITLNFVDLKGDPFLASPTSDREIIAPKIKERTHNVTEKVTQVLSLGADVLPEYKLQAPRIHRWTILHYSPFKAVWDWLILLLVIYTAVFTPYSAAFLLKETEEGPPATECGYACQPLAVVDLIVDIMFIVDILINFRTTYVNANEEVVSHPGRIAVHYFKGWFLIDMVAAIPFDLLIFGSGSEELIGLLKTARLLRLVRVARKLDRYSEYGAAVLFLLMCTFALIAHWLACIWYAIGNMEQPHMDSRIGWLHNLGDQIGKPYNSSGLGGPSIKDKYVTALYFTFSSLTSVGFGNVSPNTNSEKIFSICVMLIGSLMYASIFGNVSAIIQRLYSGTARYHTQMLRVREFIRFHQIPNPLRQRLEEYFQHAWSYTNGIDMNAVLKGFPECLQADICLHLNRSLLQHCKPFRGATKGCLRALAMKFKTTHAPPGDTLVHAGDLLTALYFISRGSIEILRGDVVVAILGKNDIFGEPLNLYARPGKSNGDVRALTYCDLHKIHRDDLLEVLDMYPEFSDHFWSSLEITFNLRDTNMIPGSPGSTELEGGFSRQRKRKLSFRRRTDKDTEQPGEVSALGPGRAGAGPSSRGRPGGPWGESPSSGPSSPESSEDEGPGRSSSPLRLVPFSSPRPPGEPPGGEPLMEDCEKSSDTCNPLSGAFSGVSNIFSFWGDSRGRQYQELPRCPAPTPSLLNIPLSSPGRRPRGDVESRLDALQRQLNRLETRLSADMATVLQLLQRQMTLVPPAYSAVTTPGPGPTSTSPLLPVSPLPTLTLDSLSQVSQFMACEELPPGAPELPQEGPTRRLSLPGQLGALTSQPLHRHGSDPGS

Row | IC50 (human TLR9) | Compound | IC50 (hERG channel) | IC20 (hERG channel) | hERG IC20/TLR7 IC50 (hERG channel) | hERG IC20/TLR8 IC50 (hERG channel) | hERG IC20/TLR9 IC50 (hERG channel)
1 | 0.072 µM | C[C@@H]1CN(c2ccc(C#N)c3ncccc23)C[C@@H]2CN(c3nccc(N4CCNCC4)n3)CCN21 [Example 30, 5-[(4R,9aR)-4-methyl-8-(4-piperazin-1-ylpyrimidin-2-yl)-3,4,6,7,9,9a-hexahydro-1H-pyrazino[1,2-a]pyrazin-2-yl]quinoline-8-carbonitrile] | > 10 µM | 4.53 µM | 283 | 216 | 63
2 | 0.111 µM | [2H]c1ccc2c(N3C[C@@H]4CN(c5ccc(CCN6C[C@H](OC)[C@@H](N)C6)cn5)CCN4[C@H](C)C3)ccc(C#N)c2n1 [Example 109, 5-[(4R,9aR)-8-[5-[2-[(3S,4S)-3-amino-4-methoxy-pyrrolidin-1-yl]ethyl]-2-pyridyl]-4-methyl-3,4,6,7,9,9a-hexahydro-1H-pyrazino[1,2-a]pyrazin-2-yl]-2-deuterio-quinoline-8-carbonitrile] | > 20 µM | > 10 µM | >2000 | >2500 | >90
3 | 0.128 µM | [2H]c1ccc2c(N3C[C@@H]4CN(c5ccc([C@@H]6CNCCO6)cc5)CCN4[C@@H](C)C3)ccc(C#N)c2n1 [Example 106, 5-[(4S,9aS)-4-methyl-8-[4-[(2R)-morpholin-2-yl]phenyl]-3,4,6,7,9,9a-hexahydro-1H-pyrazino[1,2-a]pyrazin-2-yl]-2-deuterio-quinoline-8-carbonitrile] | > 20 µM | > 10 µM | >5000 | >2500 | >78
4 | 0.045 µM | C[C@@H]1CN(c2ccc(C#N)c3ncccc23)C[C@@H]2CN(c3ccnc(N4CC(N)C4)c3)CCN21 [Example 41, 5-[(4R,9aS)-8-[2-(3-aminoazetidin-1-yl)-4-pyridyl]-4-methyl-3,4,6,7,9,9a-hexahydro-1H-pyrazino[1,2-a]pyrazin-2-yl]quinoline-8-carbonitrile] | > 20 µM | 9.64 µM | 275 | 1377 | 214
5 | 0.064 µM | CO[C@H]1CN(c2ccc(CCN3CCN4[C@@H](C3)CN(c3ccc(C#N)c5ncccc35)C[C@H]4C)cn2)C[C@@H]1N [Example 25, 5-[(4R,9aS)-8-[2-[6-[(3S,4S)-3-amino-4-methoxy-pyrrolidin-1-yl]-3-pyridyl]ethyl]-4-methyl-3,4,6,7,9,9a-hexahydro-1H-pyrazino[1,2-a]pyrazin-2-yl]quinoline-8-carbonitrile] | > 20 µM | > 10 µM | >769 | >400 | >156
6 | 0.093 µM | Cc1cc(N2CCNCC2)ncc1N1CCN2CCN(c3ccc(C#N)c4ncccc34)CC2C1 (stereo not drawn) [Example 38, 5-[2-(4-methyl-6-piperazin-1-yl-3-pyridyl)-3,4,6,7,9,9a-hexahydro-1H-pyrazino[1,2-a]pyrazin-8-yl]quinoline-8-carbonitrile] | > 20 µM | > 10 µM | >5000 | >1250 | >108
7 | 0.148 µM | [2H]c1ccc2c(N3C[C@@H]4CN(c5ncc(N6CC(C)(N)C6)cc5C)CCN4[C@@H](C)C3)ccc(C#N)c2n1 [Example 118, 5-[(4S,9aR)-8-[5-(3-amino-3-methyl-azetidin-1-yl)-3-methyl-2-pyridyl]-4-methyl-3,4,6,7,9,9a-hexahydro-1H-pyrazino[1,2-a]pyrazin-2-yl]-2-deuterio-quinoline-8-carbonitrile] | > 20 µM | 7.66 µM | 1914 | 1276 | 51
8 | 0.14 µM | [2H]c1ccc2c(N3C[C@@H]4CN(c5ccc(N6C[C@@H](N)[C@H](OC)C6)nc5)CCN4[C@@H](C)C3)ccc(C#N)c2n1 [Example 115, 5-[(4S,9aR)-8-[6-[(3R,4R)-3-amino-4-methoxy-pyrrolidin-1-yl]-3-pyridyl]-4-methyl-3,4,6,7,9,9a-hexahydro-1H-pyrazino[1,2-a]pyrazin-2-yl]-2-deuterio-quinoline-8-carbonitrile] | > 20 µM | > 10 µM | >1000 | >588 | >71
9 | 0.041 µM | C[C@@H]1CN(c2ccc(C#N)c3ncccc23)C[C@@H]2CN(Cc3ccc(N4CCNCC4)nc3)CCN21 [Example 8, 5-[(4R,9aS)-4-methyl-8-[(6-piperazin-1-yl-3-pyridyl)methyl]-3,4,6,7,9,9a-hexahydro-1H-pyrazino[1,2-a]pyrazin-2-yl]quinoline-8-carbonitrile] | > 20 µM | 8.63 µM | 392 | 166 | 210
10 | 0.047 µM | CO[C@@H]1CN(c2ccc(CCN3CCN4[C@@H](C3)CN(c3ccc(C#N)c5ncccc35)C[C@H]4C)cn2)C[C@H]1N [Example 12, 5-[(4R,9aS)-8-[2-[6-[(3R,4R)-3-amino-4-methoxy-pyrrolidin-1-yl]-3-pyridyl]ethyl]-4-methyl-3,4,6,7,9,9a-hexahydro-1H-pyrazino[1,2-a]pyrazin-2-yl]quinoline-8-carbonitrile] | > 20 µM | > 10 µM | >833 | >714 | >213
11 | 0.068 µM | CO[C@@H]1CN(c2nccc(N3CCN4[C@@H](C3)CN(c3ccc(C#N)c5ncccc35)C[C@H]4C)n2)C[C@H]1N [Example 36, 5-[(4R,9aR)-8-[2-[(3R,4R)-3-amino-4-methoxy-pyrrolidin-1-yl]pyrimidin-4-yl]-4-methyl-3,4,6,7,9,9a-hexahydro-1H-pyrazino[1,2-a]pyrazin-2-yl]quinoline-8-carbonitrile] | > 20 µM | 5.6 µM | 431 | 373 | 82
12 | 0.079 µM | C[C@@H]1CN(c2ccc(C#N)c3ncccc23)C[C@@H]2CN(c3cccc4c3CNC4)CCN21 [Example 9, 5-[(4R,9aS)-8-isoindolin-4-yl-4-methyl-3,4,6,7,9,9a-hexahydro-1H-pyrazino[1,2-a]pyrazin-2-yl]quinoline-8-carbonitrile] | > 20 µM | 5.17 µM | 1723 | 5170 | 65
13 | 0.044 µM | [2H]c1ccc2c(N3C[C@@H]4CN(CCc5ccc(N6C[C@H]7NCCO[C@@H]7C6)nc5)CCN4[C@H](C)C3)ccc(C#N)c2n1 [Example 77, 5-[(4R,9aS)-8-[2-[6-[(4aR,7aR)-3,4,4a,5,7,7a-hexahydro-2H-pyrrolo[3,4-b][1,4]oxazin-6-yl]-3-pyridyl]ethyl]-4-methyl-3,4,6,7,9,9a-hexahydro-1H-pyrazino[1,2-a]pyrazin-2-yl]-2-deuterio-quinoline-8-carbonitrile] | > 20 µM | > 10 µM | >476 | >416 | >227
